Consider 27 molecules from patent US9682976B2, “Protein kinase C inhibitors and uses thereof” (Rigel Pharmaceuticals, Inc., priority 2012, dated 2017).

The structures appear in SMILES notation. pEC50: −log10 of the molar value.

This assay concerns PKC mediated IL-2 production. As to the kind of experiment: IL-2 ELISA, human primary T cell, anti CD3+CD28+. Type of assay: cell-based. The conditions noted are these: Homo sapiens, T-cell, 24 h, human primary T cells stimulated with αCD3 and αCD28, 24 hours. A digest of the protocol:
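IL-2 was quantified by ELISA in 24 h supernatants from primary human T cells given a 1 h compound pre-treatment at 37° C. These cells had been expanded from blood mononuclear cells on αCD3/αCD28 with IL-2, and the IL-2 was removed by washing. Stimulation used plate-bound αCD3 ([…]) plus αCD28 (5 μg/ml); the counter assay used PMA (0.5 ng/ml) with ionomycin (0.1 uM) instead.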

Usually pEC50 stands for −log10 of the EC50, conventionally taken in molar units. Low values mean a large EC50, high ones a small EC50. Regarding `Cn1nnn(-c2cc(Nc3ncc(F)c(N[C@@H]4C[C@@H]5CCCN5C(C)(C)C4)n3)c(F)cc2OC2COC2)c1=O` [Compound 88, 1-(5-(4-((7R,8aS)-octahydro-5,5-dimethylindolizin-7-ylamino)-5-fluoropyrimidin-2-ylamino)-4-fluoro-2-(oxetan-3-yloxy)phenyl)-4-methyl-1H-tetrazol-5(4H)-one], the pEC50 was 6.30 to 7.00.
`Cn1nnn(-c2cc(Nc3ncc(F)c(N[C@@H]4C[C@@H]5CCCN5C(C)(C)C4)n3)c(F)cc2O)c1=O` [Compound 89, 1-(5-(4-((7R,8aS)-octahydro-5,5-dimethylindolizin-7-ylamino)-5-fluoropyrimidin-2-ylamino)-4-fluoro-2-hydroxyphenyl)-4-methyl-1H-tetrazol-5(4H)-one] gave a pEC50 of 5.00 to 6.00.
The result for `Cn1nnn(-c2cc(Nc3ncc(F)c(N[C@@H]4C[C@@H]5CCCN5C(C)(C)C4)n3)c(F)cc2Br)c1=O` [Compound 91, 1-(5-(4-((7R,8aS)-octahydro-5,5-dimethylindolizin-7-ylamino)-5-fluoropyrimidin-2-ylamino)-2-bromo-4-fluorophenyl)-4-methyl-1H-tetrazol-5(4H)-one] reads more than 7.00; that for `C=Cc1cc(F)c(Nc2ncc(F)c(N[C@@H]3C[C@@H]4CCCN4C(C)(C)C3)n2)cc1-n1nnn(C)c1=O` [Compound 92, 1-(5-(4-((7R,8aS)-octahydro-5,5-dimethylindolizin-7-ylamino)-5-fluoropyrimidin-2-ylamino)-4-fluoro-2-vinylphenyl)-4-methyl-1H-tetrazol-5(4H)-one], more than 7.00.
Then `Cn1nnn(-c2cc(Nc3ncc(F)c(N[C@@H]4C[C@@H]5CCCN5C(C)(C)C4)n3)c(F)cc2CCO)c1=O` [Compound 93, 1-(5-(4-((7R,8aS)-octahydro-5,5-dimethylindolizin-7-ylamino)-5-fluoropyrimidin-2-ylamino)-4-fluoro-2-(2-hydroxyethyl)phenyl)-4-methyl-1H-tetrazol-5(4H)-one], with 6.30 to 7.00; and `CC(O)c1cc(F)c(Nc2ncc(F)c(N[C@@H]3C[C@@H]4CCCN4C(C)(C)C3)n2)cc1-n1nnn(C)c1=O` (stereo partly drawn) [Compound 94], with 6.30 to 7.00; and `CCc1cc(F)c(Nc2ncc(F)c(N[C@@H]3C[C@@H]4CCCN4C(C)(C)C3)n2)cc1-n1nnn(C)c1=O` [Compound 95, 1-(5-(4-((7R,8aS)-octahydro-5,5-dimethylindolizin-7-ylamino)-5-fluoropyrimidin-2-ylamino)-2-ethyl-4-fluorophenyl)-4-methyl-1H-tetrazol-5(4H)-one], with more than 7.00.
Then `Cn1nnn(-c2cc(Nc3ncc(F)c(N[C@@H]4C[C@@H]5CCCN5C(C)(C)C4)n3)c(F)cc2C#CCO)c1=O` [Compound 96, 1-(5-(4-((7R,8aS)-octahydro-5,5-dimethylindolizin-7-ylamino)-5-fluoropyrimidin-2-ylamino)-4-fluoro-2-(3-hydroxyprop-1-ynyl)phenyl)-4-methyl-1H-tetrazol-5(4H)-one], with more than 7.00.
For the molecule `Cn1nnn(-c2cc(Nc3ncc(F)c(N[C@@H]4C[C@@H]5CCCN5C(C)(C)C4)n3)c(F)cc2CCCO)c1=O` [Compound 97, 1-(5-(4-((7R,8aS)-octahydro-5,5-dimethylindolizin-7-ylamino)-5-fluoropyrimidin-2-ylamino)-4-fluoro-2-(3-hydroxypropyl)phenyl)-4-methyl-1H-tetrazol-5(4H)-one], the pEC50 was 6.30 to 7.00.
The result for `Cn1nnn(-c2cc(Nc3ncc(F)c(N[C@@H]4C[C@@H]5CCCN5C(C)(C)C4)n3)c(F)cc2C#N)c1=O` [Compound 98, 4-(4-((7R,8aS)-octahydro-5,5-dimethylindolizin-7-ylamino)-5-fluoropyrimidin-2-ylamino)-5-fluoro-2-(4,5-dihydro-4-methyl-5-oxotetrazol-1-yl)benzonitrile] reads 6.30 to 7.00.
As for `C[C@H](CO)Oc1cc(F)c(Nc2ncc(F)c(N[C@@H]3C[C@@H]4CCCN4C(C)(C)C3)n2)cc1-n1nnn(C)c1=O` [Compound 99], the negative-log EC50 (pEC50) is more than 7.00.
For the molecule `CC1(C)C[C@H](Nc2nc(Nc3ccc(N4CCC5(CC4)COC5)c(C#N)c3)ncc2F)C[C@@H]2CCCN21` [Compound 100, 5-(4-((7R,8aS)-5,5-dimethyloctahydroindolizin-7-ylamino)-5-fluoropyrimidin-2-ylamino)-2-(2-oxa-7-azaspiro[3.5]nonan-7-yl)benzonitrile], the pEC50 was 6.30 to 7.00.
As for `CC1(C)C[C@H](Nc2nc(Nc3ccc(N4CC5(COC5)C4)c(C#N)c3)ncc2F)C[C@@H]2CCCN21` [Compound 101, 5-(4-((7R,8aS)-5,5-dimethyloctahydroindolizin-7-ylamino)-5-fluoropyrimidin-2-ylamino)-2-(2-oxa-6-azaspiro[3.3]heptan-6-yl)benzonitrile], the pEC50 is 6.30 to 7.00.
As to `CC1(C)Oc2ccc(Nc3ncc(F)c(N[C@H]4C[C@H]5CCCN5C(C)(C)C4)n3)cc2-n2nnnc21` [Compound 102, N2-(4,4-dimethyl-4H-benzo[b]tetrazolo[1,5-d][1,4]oxazin-8-yl)-N4-((7S,8aR)-5,5-dimethyloctahydroindolizin-7-yl)-5-fluoropyrimidine-2,4-diamine], the pEC50 was 6.30 to 7.00.
Then `CC1(C)C[C@H](Nc2nc(Nc3ccc(N4CCN(S(C)(=O)=O)CC4)c(C#N)c3)ncc2F)C[C@@H]2CCCN21` [Compound 103, 5-((4-(((7R,8aS)-5,5-Dimethyloctahydroindolizin-7-yl)amino)-5-fluoropyrimidin-2-yl)amino)-2-(4-(methylsulfonyl)piperazin-1-yl)benzonitrile], with 6.30 to 7.00.
The result for `CC1(C)C[C@H](Nc2nc(Nc3ccc4c(c3)OCC(=O)N4CC3CC3)ncc2F)C[C@@H]2CCCN21` [Compound 104, 4-(cyclopropylmethyl)-7-((4-(((7R,8aS)-5,5-dimethyloctahydroindolizin-7-yl)amino)-5-fluoropyrimidin-2-yl)amino)-2H-benzo[b][1,4]oxazin-3(4H)-one] reads 6.30 to 7.00; that for `CC1(C)Oc2cc(Nc3ncc(F)c(N[C@@H]4C[C@@H]5CCCN5C(C)(C)C4)n3)ccc2N(CC2CC2)C1=O` [Compound 105, 4-(cyclopropylmethyl)-7-((4-(((7R,8aS)-5,5-dimethyloctahydroindolizin-7-yl)amino)-5-fluoropyrimidin-2-yl)amino)-2,2-dimethyl-2H-benzo[b][1,4]oxazin-3(4H)-one], 6.00 to 6.30; that for `CC1(C)C[C@H](Nc2nc(Nc3ccc(N4CCOCC4)c(C#N)c3)ncc2F)C[C@@H]2CCCN21` [Compound 106, 5-((4-(((7R,8aS)-5,5-dimethyloctahydroindolizin-7-yl)amino)-5-fluoropyrimidin-2-yl)amino)-2-morpholinobenzonitrile], 6.30 to 7.00.
Molecule `CC1(C)C[C@H](Nc2nc(Nc3ccc(N4CCC(O)CC4)c(C#N)c3)ncc2F)C[C@@H]2CCCN21` [Compound 107, 5-((4-(((7R,8aS)-5,5-dimethyloctahydroindolizin-7-yl)amino)-5-fluoropyrimidin-2-yl)amino)-2-(4-hydroxypiperidin-1-yl)benzonitrile] showed a pEC50 of 6.30 to 7.00.
The result for `CN1CCN(c2ccc(Nc3ncc(F)c(N[C@@H]4C[C@@H]5CCCN5C(C)(C)C4)n3)cc2C#N)CC1` [Compound 108, 5-((4-(((7R,8aS)-5,5-dimethyloctahydroindolizin-7-yl)amino)-5-fluoropyrimidin-2-yl)amino)-2-(4-methylpiperazin-1-yl)benzonitrile] reads more than 7.00.
Then `Cn1nnn(-c2cc(Nc3ncc(F)c(N[C@@H]4C[C@@H]5CCCN5C(C)(C)C4)n3)c(F)cc2O[C@@H]2CCOC2)c1=O` [Compound 109, 1-(5-((4-(((7R,8aS)-5,5-dimethyloctahydroindolizin-7-yl)amino)-5-fluoropyrimidin-2-yl)amino)-4-fluoro-2-(((R)-tetrahydrofuran-3-yl)oxy)phenyl)-4-methyl-1,4-dihydro-5H-tetrazol-5-one], with 6.30 to 7.00; and `Cn1nnn(-c2cc(Nc3ncc(F)c(N[C@@H]4C[C@@H]5CCCN5C(C)(C)C4)n3)c(F)cc2O[C@H]2CCOC2)c1=O` [Compound 110, 1-(5-((4-(((7R,8aS)-5,5-dimethyloctahydroindolizin-7-yl)amino)-5-fluoropyrimidin-2-yl)amino)-4-fluoro-2-(((S)-tetrahydrofuran-3-yl)oxy)phenyl)-4-methyl-1,4-dihydro-5H-tetrazol-5-one], with 6.30 to 7.00.
Then `Cn1nnn(-c2cc(Nc3ncc(C#N)c(N[C@@H]4C[C@@H]5CCCN5C(C)(C)C4)n3)c(F)cc2OC2CCOC2)c1=O` (stereo partly drawn) [Compound 111], with 6.30 to 7.00.
With `Cn1nnn(-c2cc(Nc3ncc(C#N)c(N[C@@H]4C[C@@H]5CCCN5C(C)(C)C4)n3)c(F)cc2O[C@H]2CCOC2)c1=O` [Compound 112], the pEC50 is 6.30 to 7.00.
Then `Cn1nnn(-c2cc(Nc3ncc(C#N)c(N[C@@H]4C[C@@H]5CCCN5C(C)(C)C4)n3)c(F)cc2OC2COC2)c1=O` [Compound 113, 4-(((7R,8aS)-5,5-dimethyloctahydroindolizin-7-yl)amino)-2-((2-fluoro-5-(4-methyl-5-oxo-4,5-dihydro-1H-tetrazol-1-yl)-4-(oxetan-3-yloxy)phenyl)amino)pyrimidine-5-carbonitrile], with 6.30 to 7.00; and `Cn1nnn(-c2cc(Nc3ncc(F)c(N[C@@H]4C[C@@H]5CCCN5C(C)(C)C4)n3)c(F)cc2OC2CCOCC2)c1=O` [Compound 114, 1-(5-((4-(((7R,8aS)-5,5-dimethyloctahydroindolizin-7-yl)amino)-5-fluoropyrimidin-2-yl)amino)-4-fluoro-2-((tetrahydro-2H-pyran-4-yl)oxy)phenyl)-4-methyl-1,4-dihydro-5H-tetrazol-5-one], with 6.00 to 6.30; and `Cn1nnn(-c2cc(Nc3ncc(C#N)c(N[C@@H]4C[C@@H]5CCCN5C(C)(C)C4)n3)c(F)cc2OC2CCOCC2)c1=O` [Compound 115, 4-(((7R,8aS)-5,5-dimethyloctahydroindolizin-7-yl)amino)-2-((2-fluoro-5-(4-methyl-5-oxo-4,5-dihydro-1H-tetrazol-1-yl)-4-((tetrahydro-2H-pyran-4-yl)oxy)phenyl)amino)pyrimidine-5-carbonitrile], with 6.00 to 6.30.
